Measured values taken from article PMC6151865, “Targeting protein biotinylation enhances tuberculosis chemotherapy” (Science Translational Medicine, 2018).
Where two headings read alike, the source gives them in different places.

Columns and labels:
Rv3406 [1] = target: T1, Rv3406 (Mycobacterium tuberculosis, UniProt P9WKZ1); settings: substrate; ref Neres et al., ACS Chem Biol 10, 705-714 (2015); cited from earlier work
Mtb [2] = assay: Acid-fast (Kinyoun) staining after Bio-AMS exposure; type: cell-based, Mycobacterium tuberculosis; settings: lethal dose (5 µM); after 10 days of exposure
[3] = Tolerability at ascending intraperitoneal doses; type: in vivo, CD-1 mice
Method: Groups of three mice received Bio-AMS (50, 100, 250, or 500 mg/kg) via intraperitoneal injection at 4 ml/kg. They were observed continuously for the first half-hour after injection and then at 24 hours after injection.
Table S5. Tolerability of Bio-AMS at ascending intraperitoneal doses in CD-1 mice.a Bio-AMS 50mg/kg (IP) 4 ml/kg
Mouse # Weight ½ h Observation 24h Observation
Bio-AMS 100mg/kg (IP) 4 ml/kg
Bio-AMS 250mg/kg (IP) 4 ml/kg
Bio-AMS 500mg/kg (IP) 4 ml/kg […]
would be tolerated in mice (with plasma concentrations above the MIC for a minimum of 40-50% of the dosing interval). For this, we conducted a dose escalation tolerab ility study in which groups of three mice received ascending IP doses of Bio-AMS. Only the lowest dose of 50 mg/kg was tolerated up to 24 h post injection. Animal weights remained unchanged during the 24 h period post-injection at all doses. Assuming linear pharmacokinetics, a 50 mg/kg dose would deliver plasma concentrations above the MIC for a very small fraction of the dosing

Mtb [4] = assay: MIC measurements (carbon sources, biotin in medium)
[5] = in vivo
Mtb [6] = type: cell-based, Mycobacterium tuberculosis
Rv3406 [7] = target: T1, Rv3406
[8] = system: non-replicating Mtb H37Rv strain; assay: Viability of non-replicating Mtb (PBS starvation); type: cell-based, Mycobacterium tuberculosis; settings: starvation in PBS
in vivo [9] = settings: CD-1, mouse
Mtb H37Rv strain = assay: Combination of Bio-AMS with rifampicin, ethambutol, isoniazid in liquid culture; type: cell-based, Mycobacterium tuberculosis; settings: for bactericidal activity when used individually: Bio-AMS at 1 µM, rifampicin at 6.5 nM, ethambutol at 12.5 µM; for change of MIC by sublethal dose of Bio-AMS: Bio-AMS 1 µM, 3 days pre-exposure; for Mtb inoculum killed: after 20 days of treatment
Mtb in mouse macrophages = assay: Intracellular Mtb in mouse bone marrow-derived macrophages; settings: treated 24 hours after infection
in vivo [10] = settings: female, NZW, rabbit, lung lesions and plasma, oral
[11] = 7 days
[12] = Rifampicin-doxycycline interaction study; settings: plasma; for AUC(0-t): female, CD-1, mouse, in vivo, po, Doxycycline AUC[0-8] Mean (SD); for Doxycycline Cmin Mean (SD): daytime
Mtb ∆bioA = type: cell-based, Mycobacterium tuberculosis
bioA TetON-1 Mtb strain = system: bioA TetON-1 Mtb strain; design: species or system C57BL/6 mice; settings: in vivo
in vivo [13] = settings: female, CD-1, mouse, po, 10 mg/kg
[14] = system: [H][C@]12CS[C@@H](CCCCC(=O)NS(=O)(=O)NC[C@H]3O[C@@H](n4cnc5c(N)ncnc54)[C@H](O)[C@@H]3O)[C@@]1([H])NC(=O)N2; assay: purified protein, by the assay type; settings: pH 7.5; 25.0 °C
[15] = different carbon sources at 0.1%
[16] = rifampicin single dose plus doxycycline in diet (2000 ppm, 7 days)
[17] = rifampicin steady state + doxycycline in diet

Molecule: CCCCC(CC)COS(=O)(=O)[O-].[Na+] (centres unmarked) [2-EHS, 2-ethylhexyl sulfate]
- Km (Rv3406 [1]): 8.8 ± 0.5 µM
- kcat (Rv3406 [1]): 19.2 ± 0.9 min⁻¹

Molecule: Nc1ncnc2c1ncn2[C@@H]1O[C@H](CNS(=O)(=O)NC(=O)CCCC[C@@H]2SC[C@@H]3NC(=O)N[C@@H]32)[C@@H](O)[C@H]1O [Bio-AMS, 5′-[N-(d-biotinoyl)sulfamoyl]amino-5′-deoxyadenosine]
- acid-fastness (Mtb [2]): most bacteria no longer stained as acid-fast
- 24h Observation ([3]; 50 mg/kg IP, mouse 1): Normal activity
- ½ h Observation ([3]; 50 mg/kg IP, mouse 1): Active, grooming
- 24h Observation ([3]; 50 mg/kg IP, mouse 2): Scruffy; some lethargic
- ½ h Observation ([3]; 50 mg/kg IP, mouse 2): Active, grooming
- 24h Observation ([3]; 50 mg/kg IP, mouse 3): Normal activity
- ½ h Observation ([3]; 50 mg/kg IP, mouse 3): Active, grooming
- 24h Observation ([3]; 100 mg/kg IP, mouse 4): Normal activity; grooming
- ½ h Observation ([3]; 100 mg/kg IP, mouse 4): Normal activity
- 24h Observation ([3]; 100 mg/kg IP, mouse 5): Dead
- ½ h Observation ([3]; 100 mg/kg IP, mouse 5): Normal activity
- 24h Observation ([3]; 100 mg/kg IP, mouse 6): Euthanized
- ½ h Observation ([3]; 100 mg/kg IP, mouse 6): Normal activity
- 24h Observation ([3]; 250 mg/kg IP, mouse 7): Dead
- ½ h Observation ([3]; 250 mg/kg IP, mouse 7): Heavy breathing
- 24h Observation ([3]; 250 mg/kg IP, mouse 8): Dead
- ½ h Observation ([3]; 250 mg/kg IP, mouse 8): Scruffy, heavy breathing
- 24h Observation ([3]; 250 mg/kg IP, mouse 9): Euthanized
- ½ h Observation ([3]; 250 mg/kg IP, mouse 9): Normal activity
- 24h Observation ([3]; 500 mg/kg IP, mouse 10): Near death; scruffy; pale color
- ½ h Observation ([3]; 500 mg/kg IP, mouse 10): Scruffy, heavy breathing
- 24h Observation ([3]; 500 mg/kg IP, mouse 11): Euthanized
- ½ h Observation ([3]; 500 mg/kg IP, mouse 11): Scruffy, heavy breathing
- 24h Observation ([3]; 500 mg/kg IP, mouse 12): Euthanized
- ½ h Observation ([3]; 500 mg/kg IP, mouse 12): Scruffy, heavy breathing
- animal weights during the 24 h period post-injection ([3]; IP, all doses): unchanged
- dose tolerated up to 24 h post injection ([3]; IP, doses of 50, 100, 250, 500 mg/kg tested): 50 mg/kg
- tolerability of the dose required for concentrations above the MIC for a substantial fraction of the dosing interval ([3]; mice): not tolerated
- impact of primary carbon source on MIC (Mtb [4]; [15]): little impact
- impact of primary carbon source on minimal bactericidal concentration (Mtb [4]; [15]): little impact
- increase of MIC by addition of biotin to the growth medium (Mtb [4]; with versus without biotin): fourfold
- growth of Mtb H37Ra (CFU) (Mtb H37Ra): prevented growth
- toxicity for mouse macrophages (mouse macrophages): did not detect toxicity
- mitochondrial toxicity (HepG2 cells): no signs of mitochondrial toxicity
- shift in IC50, glucose medium compared to galactose medium (HepG2 cells; human): 1.05 fold
- F, bioavailability relative to IV exposure ([5]; CD-1, mouse, 25 mg/kg): 241%
- elimination in mice ([5]; mouse): rapidly eliminated
- exposure ([5]; mouse, ip): good exposure
- exposure ([5]; mouse, po): low
- bactericidal concentration (Mtb [6]): 5 µM
- killing kinetics (Mtb [6]): kinetics similar to that of isoniazid
- viability of the culture (Mtb [6]): < 25 CFU/ml
- KM value relative to 2-EHS (higher) (Rv3406 [7]): 48 fold
- kcat value relative to 2-EHS (lower) (Rv3406 [7]): ~1300 fold
- Mtb viability, non-replicating [8]: no reduction in Mtb viability
- bioavailability (in vivo [9]; 25 mg/kg): 2%
- AUC(0-t) (in vivo [9]; ip, 25 mg/kg): 31.8 µM·h
- Cmax (in vivo [9]; ip, 25 mg/kg): 61.1 µM
- AUC(0-t) (in vivo [9]; iv, 5 mg/kg): 2.5 µM·h
- Cmax (in vivo [9]; iv, 5 mg/kg): 8.72 µM
- AUC(0-t) (in vivo [9]; po, 25 mg/kg): 0.26 µM·h
- Cmax (in vivo [9]; po, 25 mg/kg): 0.11 µM
- bactericidal activity when used individually (Mtb H37Rv strain): none of the compounds were bactericidal
- growth of Mtb in infected mouse macrophages (Mtb in mouse macrophages): inhibited growth of Mtb in a concentration-dependent manner

Molecule: C[C@H]1c2cccc(O)c2C(=O)C2=C(O)[C@]3(O)C(=O)C(C(N)=O)=C(O)[C@@H](N(C)C)[C@@H]3[C@@H](O)[C@@H]21 [doxycycline]
- Kp at 7 days (in vivo [10]; 200 ppm): 6.1
- Kp at 7 days (in vivo [10]; 400 ppm): 3.7
- Average lesion/plasma ratio (SD) ([11]; animal 1069, 200 ppm in chow, 44 lesions): 3.9 (2.6)
- Average lesion/plasma ratio (SD) ([11]; animal 1071, 400 ppm in chow, 19 lesions): 5.4 (2.5)
- decrease in exposure ([12]; caused by seven daily doses of rifampicin, 8-hour period, P < 0.05): ~ 30%
- AUC(0-t) [12, 16]: 4780 ng·h/mL
- AUC(0-t) [12, 17]: 3360 ng·h/mL
- Doxycycline Cmin Mean (SD) [12, 16]: 0.36 (0.09) g/mL
- Doxycycline Cmin Mean (SD) [12, 17]: 0.26 (0.02) g/mL

Molecule: CC[C@@H](CO)NCCN[C@@H](CC)CO [ethambutol]
- change of MIC with decreasing concentrations of biotin (Mtb ∆bioA): unchanged
- change of MIC by sublethal dose of Bio-AMS (Mtb H37Rv strain): reduced the MIC
- bactericidal activity when used individually (Mtb H37Rv strain): none of the compounds were bactericidal
- Mtb inoculum killed (Mtb H37Rv strain; ethambutol 12.5 µM combined with Bio-AMS 1 µM): > 99.9%

Molecule: NNC(=O)c1ccncc1 [isoniazid]
- change of MIC by sublethal dose of Bio-AMS (Mtb H37Rv strain): unchanged

Molecule: CO[C@H]1/C=C/O[C@@]2(C)Oc3c(C)c(O)c4c(O)c(c(/C=N/N5CCN(C)CC5)c(O)c4c3C2=O)NC(=O)/C(C)=C\C=C\[C@H](C)[C@H](O)[C@@H](C)[C@@H](O)[C@@H](C)[C@H](OC(C)=O)[C@@H]1C [rifampicin]
- amount accumulated in Mtb ∆bioA compared to wild-type (Mtb ∆bioA): increased amounts of rifampicin
- change of MIC with decreasing concentrations of biotin (Mtb ∆bioA): decreased the MIC
- killing of Mtb bioA TetON-1 in mouse lungs (bioA TetON-1 Mtb strain): more than 200 fold
- CFU from lungs, BioA expression reduced (no doxycycline) compared to constitutive (bioA TetON-1 Mtb strain; mouse): fewer CFU
- AUC(0-t) (in vivo [13]; Rifampicin AUC[0-8] Mean (SD)): 30700 ng·h/mL
- Cmax (in vivo [13]; Rifampicin Cmax Mean (SD)): 5210 ng/mL
- effect of co-administration of doxycycline on exposure [12]: not affected
- Rifampicin Cmax Mean (SD) [12, 17]: 5.49 (2.14) g/mL
- change of MIC by sublethal dose of Bio-AMS (Mtb H37Rv strain): reduced the MIC
- bactericidal activity when used individually (Mtb H37Rv strain): none of the compounds were bactericidal
- Mtb inoculum killed (Mtb H37Rv strain; rifampicin 6.5 nM combined with Bio-AMS 1 µM): more than 99.7%

Molecule: O=C(O)CCC(=O)C(=O)O [α-KG, alpha-ketoglutarate]
- Km (Rv3406 [1]): 9.4 ± 1.2 µM
- kcat (Rv3406 [1]): 21.8 ± 1.0 min⁻¹

Molecule: Rv3406 (Mycobacterium tuberculosis H37Rv)
- Km [14]: 0.424 ± 0.136 mM
- kcat [14]: 0.015 ± 0.001 min⁻¹
- kcat/Km [14]: 0.035 ± 0.007 min⁻¹ mM⁻¹
